Reference: US8759051B2, “Control of contaminant microorganisms in fermentation processes with peroxygen-releasing compounds” (E I du Pont de Nemours and Company, priority 2010, dated 2014)

Test system: FermPro S
Assay: Susceptibility of fermenting yeast to sodium percarbonate in diluted molasses (Example 1, second part)
Assay type: cell-based
Settings: for yeast level after treatment: two hours, molasses
Description: In a second part of this Example 1, the yeasts strains Ethanol Red, FermPro S, and SuperStart (commonly used as fermenting yeasts in the ethanol industry) were cultured overnight in Yeast Peptone Dextrose broth (YPD, Difco Laboratories Inc., Sparks, Md.). Individual strains were then suspended in dilute molasses as above to give approximately 1×10^6 CFU/ml and treated with various concentration of percarbonate for two hours as described above.

O=C([O-])[O-].O=C([O-])[O-].OO.OO.OO.[Na+].[Na+].[Na+].[Na+] [Sodium percarbonate, sodium percarbonate]
reduction of yeast (1.0×10^6 CFU/ml, 500 ppm percarbonate): < 1 log
yeast level after treatment (100 ppm percarbonate): 7.30 × 10^6 CFU/ml
yeast level after treatment (250 ppm percarbonate): 3.00 × 10^6 CFU/ml
yeast level after treatment (500 ppm percarbonate): 1.43 × 10^6 CFU/ml
reduction of yeast (1000 ppm percarbonate): approximately 1 log
yeast level after treatment (1000 ppm percarbonate): 2.90 × 10^5 CFU/ml
